Laboratory results: the supplement of paper PMC10627819

How the values were obtained:
S. aureus DSM 20231 [1] = assay: fitness (endpoint OD595 vs no drug) (fraction); higher = more growth
How it was run: (§1)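 Growth medium was TSB, LB Lennox or CY, and plates were kept at 37 °C. Inoculation was at OD595 0.01 in 384-well plates, at 30 µl per well or 55 µl for S. pneumoniae. OD595 was monitored every 30 min for 14 h and background-subtracted using the first reading. Fitness is the optical density on entering stationary phase divided by the robust mean of no-drug controls, with values capped at 1.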

S. aureus Newman [2] = assay: as above
How it was run: as §1

B. subtilis 168 [3] = assay: as above
How it was run: as §1

S. aureus DSM 20231 [4] = assay: Bliss interaction score (quartile over a dose matrix) (fitness difference); higher = more antagonism (negative = synergy)
How it was run: (§2)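 The Bliss score is observed minus expected fitness, where expected fitness is the product of the single-drug fitness values inferred from the combination data. Fitness is the OD595 at the onset of stationary phase over the plate's robust no-drug mean, capped at 1. Scores are summarised by quartiles over technical, biological and donor/recipient replicates.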

S. aureus Newman [5] = assay: as above
How it was run: as §2

S. pneumoniae D39V = assay: as above
How it was run: as §2

B. subtilis 168 [6] = assay: as above
How it was run: as §2
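Throughout, for Bliss interaction score (quartile over a dose matrix): first quartile when negative (synergy) and third quartile when positive (antagonism).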
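Throughout, for fitness (endpoint OD595 vs no drug): OD595 on entry to stationary phase over no-drug wells; at most 1.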

CC[C@H]1OC(=O)[C@H](C)[C@@H](O[C@H]2C[C@@](C)(OC)[C@@H](O)[C@H](C)O2)[C@H](C)[C@@H](O[C@@H]2O[C@H](C)C[C@H](N(C)C)[C@H]2O)[C@](C)(O)C[C@@H](C)CN(C)[C@H](C)[C@@H](O)[C@]1(C)O [Azithromycin] + CO/N=C(\C(=O)N[C@@H]1C(=O)N2C(C(=O)O)=C(COC(C)=O)CS[C@H]12)c1csc(N)n1 [Cefotaxime]
fitness, one replicate
Settings	first compound 0.125 µg/mL	first compound 0.25 µg/mL	first compound 0.5 µg/mL	first compound 1 µg/mL	first compound 2 µg/mL
B. subtilis 168 [3], partner 0.00775 µg/mL	–	–	0.831	0.567	0.0141
B. subtilis 168 [3], partner 0.0155 µg/mL	–	–	0.714	0.324	0.0276
B. subtilis 168 [3], partner 0.031 µg/mL	–	–	0.516	0.153	0.0097
S. aureus DSM 20231 [1], partner 0.039 µg/mL	0.725	0.724	0.589	–	–
S. aureus Newman [2], partner 0.039 µg/mL	0.792	0.896	0.786	–	–
S. aureus Newman [2], partner 0.312 µg/mL	0.269	0.241	0.0227	–	–

fitness
Settings	first compound 0.125 µg/mL	first compound 0.25 µg/mL	first compound 0.5 µg/mL	first compound 1 µg/mL
B. subtilis 168 [3], partner 0.0625 µg/mL	–	0.654	0.631	–
B. subtilis 168 [3], partner 0.125 µg/mL	–	0.456	0.456	0.21
B. subtilis 168 [3], partner 0.25 µg/mL	–	0.349	0.358	0.177
B. subtilis 168 [3], partner 0.5 µg/mL	–	0.21	0.19	0.0636
B. subtilis 168 [3], partner 1 µg/mL	–	0.141	0.103	0.0233
B. subtilis 168 [3], partner 2 µg/mL	–	0.111	0.0792	0.037
S. aureus DSM 20231 [1], partner 0.078 µg/mL	0.744	0.768	0.554	–
S. aureus DSM 20231 [1], partner 0.156 µg/mL	0.672	0.762	0.511	–
S. aureus DSM 20231 [1], partner 0.312 µg/mL	0.6	0.668	0.487	–
S. aureus Newman [2], partner 0.078 µg/mL	0.722	0.754	0.549	–
S. aureus Newman [2], partner 0.156 µg/mL	0.587	0.588	–	–
S. aureus Newman [2], partner 0.625 µg/mL	–	–	0.0779	–
S. aureus Newman [2], partner 1.25 µg/mL	0.157	0.0373	0.0342	–
S. aureus Newman [2], partner 2.5 µg/mL	0.0341	0.0356	0.0427	–

Settings	Bliss interaction score
B. subtilis 168 [6]	-0.053
S. aureus DSM 20231 [4]	0.0492
S. aureus Newman [5]	-0.0321
S. pneumoniae D39V	0.0552

CC[C@H]1OC(=O)[C@H](C)[C@@H](O[C@H]2C[C@@](C)(OC)[C@@H](O)[C@H](C)O2)[C@H](C)[C@@H](O[C@@H]2O[C@H](C)C[C@H](N(C)C)[C@H]2O)[C@](C)(O)C[C@@H](C)CN(C)[C@H](C)[C@@H](O)[C@]1(C)O [Azithromycin] + COc1c(N2C[C@@H]3CCCN[C@@H]3C2)c(F)cc2c(=O)c(C(=O)O)cn(C3CC3)c12 [Moxifloxacin]
fitness
Settings	first compound 0.125 µg/mL	first compound 0.25 µg/mL	first compound 0.5 µg/mL	first compound 1 µg/mL	first compound 2 µg/mL
B. subtilis 168 [3], partner 0.0312 µg/mL	–	–	0.0678	0.0582	0.0414
B. subtilis 168 [3], partner 0.0625 µg/mL	–	0.0511	0.0366	0.0237	0.0289
B. subtilis 168 [3], partner 0.125 µg/mL	–	0.0301	0.0372	0.0336	0.02
B. subtilis 168 [3], partner 2 µg/mL	–	0.027	0.0186	0.0208	–
B. subtilis 168 [3], partner 4 µg/mL	–	0.0147	0.0272	0.0194	–
B. subtilis 168 [3], partner 8 µg/mL	–	0.0347	0.042	0.0214	–
S. aureus DSM 20231 [1], partner 0.0075 µg/mL	0.727	0.747	–	–	–
S. aureus DSM 20231 [1], partner 0.015 µg/mL	0.687	0.772	0.592	–	–
S. aureus DSM 20231 [1], partner 0.03 µg/mL	0.656	0.737	0.556	–	–
S. aureus Newman [2], partner 0.0075 µg/mL	0.717	0.723	–	–	–
S. aureus Newman [2], partner 0.015 µg/mL	0.666	–	0.415	–	–
S. aureus Newman [2], partner 0.03 µg/mL	–	–	0.307	–	–

fitness, S. aureus DSM 20231 [1], one replicate
Settings	first compound 0.125 µg/mL	first compound 0.25 µg/mL	first compound 0.5 µg/mL
partner 0.06 µg/mL	0.633	0.623	0.587
partner 0.12 µg/mL	0.528	0.559	0.452

Settings	Bliss interaction score
B. subtilis 168 [6]	0.0244
S. aureus DSM 20231 [4]	0.0773
S. aureus Newman [5]	0.118
S. pneumoniae D39V	0.0652
